Reference: patent publication US20210395239A1 (Hoffmann-La Roche Inc., priority 2018, published 2021)

Target: T1, human TLR8 (Homo sapiens, UniProt Q9NR97)
T1 construct: host or cells: HEK293 (HEK-Blue hTLR8)
T1 sequence (Q9NR97 27-1041): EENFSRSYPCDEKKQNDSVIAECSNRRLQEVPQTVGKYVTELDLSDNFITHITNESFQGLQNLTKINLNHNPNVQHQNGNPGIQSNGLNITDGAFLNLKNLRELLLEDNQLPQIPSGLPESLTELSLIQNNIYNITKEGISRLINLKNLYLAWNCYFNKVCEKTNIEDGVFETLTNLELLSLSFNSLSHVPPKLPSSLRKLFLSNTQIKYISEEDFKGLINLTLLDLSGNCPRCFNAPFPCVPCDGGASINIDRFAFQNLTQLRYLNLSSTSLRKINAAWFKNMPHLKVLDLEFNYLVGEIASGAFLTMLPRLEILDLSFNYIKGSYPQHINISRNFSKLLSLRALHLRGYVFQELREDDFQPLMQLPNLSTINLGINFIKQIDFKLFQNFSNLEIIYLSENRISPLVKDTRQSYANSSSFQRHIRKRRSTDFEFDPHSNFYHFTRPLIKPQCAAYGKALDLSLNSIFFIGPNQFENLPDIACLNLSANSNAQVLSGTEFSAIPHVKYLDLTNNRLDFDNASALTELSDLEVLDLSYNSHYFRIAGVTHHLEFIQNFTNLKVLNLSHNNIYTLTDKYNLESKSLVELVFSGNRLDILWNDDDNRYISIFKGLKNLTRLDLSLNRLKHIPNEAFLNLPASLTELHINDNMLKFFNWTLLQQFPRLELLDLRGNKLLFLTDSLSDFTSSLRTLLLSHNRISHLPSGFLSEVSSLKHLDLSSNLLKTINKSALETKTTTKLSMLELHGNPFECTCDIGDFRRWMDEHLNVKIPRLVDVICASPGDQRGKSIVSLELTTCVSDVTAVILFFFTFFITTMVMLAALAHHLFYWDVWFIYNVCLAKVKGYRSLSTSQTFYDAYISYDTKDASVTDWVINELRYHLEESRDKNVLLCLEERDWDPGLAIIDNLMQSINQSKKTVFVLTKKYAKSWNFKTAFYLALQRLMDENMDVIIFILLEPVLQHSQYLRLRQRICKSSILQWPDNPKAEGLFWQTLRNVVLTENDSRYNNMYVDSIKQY
Test: HEK293-Blue-hTLR-8 cells assay (SEAP reporter, R848 stimulation)
Format: cell-based
Details: HEK293-Blue-hTLR8 cells, R848, 20 hrs; read-out: HEK/hTLR8 IC50
Procedure, shortened: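 Antagonism read as reduced R848-induced SEAP reporter secretion, detected by QUANTI-Blue absorbance at 620–655 nm after 2 h. Reporter cells were exposed to compound dilutions in DMEM/10% FBS, 1% DMSO, for 20 h at 37° C.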

| SMILES | IC50 |
| --- | --- |
| C[C@@H]1CN(c2ccc(C#N)c3ncccc23)C[C@H](CN2CCN(c3cccc(N[C@H]4CNC[C@H]4F)n3)CC2)O1 [Example 37, 5-[(2S,6R)-2-[[4-[6-[[(3S,4R)-4-fluoropyrrolidin-3-yl]amino]-2-pyridyl]piperazin-1-yl]methyl]-6-methyl-morpholin-4-yl]quinoline-8-carbonitrile] | 30 nM |
| C[C@@H]1CN(c2ccc(C#N)c3ncccc23)C[C@H](CN2CCN(c3cccc(N4CC(N)C(F)C4)n3)CC2)O1 (stereo partly drawn) [Example 40, 5-[(2S,6R)-2-[[4-[6-(3-amino-4-fluoro-pyrrolidin-1-yl)-2-pyridyl]piperazin-1-yl]methyl]-6-methyl-morpholin-4-yl]quinoline-8-carbonitrile] | 17 nM |
| C[C@@H]1CN(c2ccc(C#N)c3ncccc23)C[C@H](CN2CCN(c3cccc(N4CCNCC(O)C4)n3)CC2)O1 (stereo partly drawn) [Example 41, 5-[(2S,6R)-2-[[4-[6-(6-hydroxy-1,4-diazepan-1-yl)-2-pyridyl]piperazin-1-yl]methyl]-6-methyl-morpholin-4-yl]quinoline-8-carbonitrile] | 32 nM |
| CO[C@H]1CN(c2cccc(N3CCN(C[C@H]4CN(c5ccc(C#N)c6ncccc56)C[C@@H](C)O4)CC3)n2)C[C@H]1N [Example 42, 5-[(2S,6R)-2-[[4-[6-[(3R,4S)-3-amino-4-methoxy-pyrrolidin-1-yl]-2-pyridyl]piperazin-1-yl]methyl]-6-methyl-morpholin-4-yl]quinoline-8-carbonitrile] | 13 nM |
| C[C@@H]1CN(c2ccc(C#N)c3ncccc23)C[C@H](CN2CCN(c3ccc(N4CC(N)C(F)C4)nc3)CC2)O1 (stereo partly drawn) [Example 44, 5-[(2S,6R)-2-[[4-[6-(3-amino-4-fluoro-pyrrolidin-1-yl)-3-pyridyl]piperazin-1-yl]methyl]-6-methyl-morpholin-4-yl]quinoline-8-carbonitrile] | 10 nM |
| Cc1nc(N2CCNCC2)nc(N2CCN(C[C@H]3CN(c4ccc(C#N)c5ncccc45)C[C@@H](C)O3)CC2)c1C [Example 46, 5-[(2S,6R)-2-[[4-(5,6-dimethyl-2-piperazin-1-yl-pyrimidin-4-yl)piperazin-1-yl]methyl]-6-methyl-morpholin-4-yl]quinoline-8-carbonitrile] | 9 nM |
| COc1cnc(N2CCNCC2)nc1N1CCN(C[C@H]2CN(c3ccc(C#N)c4ncccc34)C[C@@H](C)O2)CC1 [Example 48, 5-[(2S,6R)-2-[[4-(5-methoxy-2-piperazin-1-yl-pyrimidin-4-yl)piperazin-1-yl]methyl]-6-methyl-morpholin-4-yl]quinoline-8-carbonitrile] | 4 nM |
| C[C@@H]1CN(c2ccc(C#N)c3ncccc23)C[C@H](CN2CCN(c3nc(N4CCNCC4)nc4ccccc34)CC2)O1 [Example 49, 5-[(2R,6S)-2-methyl-6-[[4-(2-piperazin-1-ylquinazolin-4-yl)piperazin-1-yl]methyl]morpholin-4-yl]quinoline-8-carbonitrile] | 10 nM |
| C[C@@H]1CN(c2ccc(C#N)c3ncccc23)C[C@H](CN2CCN(c3nc(N4CCNCC4)ncc3C#N)CC2)O1 [Example 50, 5-[(2S,6R)-2-[[4-(5-cyano-2-piperazin-1-yl-pyrimidin-4-yl)piperazin-1-yl]methyl]-6-methyl-morpholin-4-yl]quinoline-8-carbonitrile] | 3 nM |
| C[C@@H]1CN(c2ccc(C#N)c3ncccc23)C[C@H](CN2CCN(c3ncc(C#N)c(N4CCNCC4)n3)CC2)O1 [Example 51, 5-[(2S,6R)-2-[[4-(5-cyano-4-piperazin-1-yl-pyrimidin-2-yl)piperazin-1-yl]methyl]-6-methyl-morpholin-4-yl]quinoline-8-carbonitrile] | 3 nM |
| C[C@@H]1CN(c2ccc(C#N)c3ncccc23)C[C@H](CN2CCN(c3cccc(C4CNCCO4)c3)CC2)O1 (stereo partly drawn) [Example 62, 5-[(2R,6S)-2-methyl-6-[[4-(3-morpholin-2-ylphenyl)piperazin-1-yl]methyl]-morpholin-4-yl]quinoline-8-carbonitrile] | 14 nM |
| Cc1cc(N2CCN(C[C@H]3CN(c4ccc(C#N)c5nccnc45)C[C@@H](C)O3)CC2)nc(N2CCNCC2)n1 [Example 64, 8-[(2R,6S)-2-methyl-6-[[4-(6-methyl-2-piperazin-1-yl-pyrimidin-4-yl)piperazin-1-yl]methyl]morpholin-4-yl]quinoxaline-5-carbonitrile] | 2 nM |
| Cc1cc(N2CCN(C[C@H]3CN(c4ccc(C(F)(F)F)c5nccnc45)C[C@@H](C)O3)CC2)nc(N2CCNCC2)n1 [Example 65, (2R,6S)-2-methyl-6-[[4-(6-methyl-2-piperazin-1-yl-pyrimidin-4-yl)piperazin-1-yl]methyl]-4-[8-(trifluoromethyl)quinoxalin-5-yl]morpholine] | 9 nM |

Continued, values first:

| IC50 | SMILES |
| --- | --- |
| 3 nM | Cc1cc(N2CCN(C[C@H]3CN(c4ccc(C#N)c5ncccc45)C[C@@H](C)O3)CC2)nc(N2CCNCC2)n1 [Example 47, 5-[(2R,6S)-2-methyl-6-[[4-(6-methyl-2-piperazin-1-yl-pyrimidin-4-yl)piperazin-1-yl]methyl]morpholin-4-yl]quinoline-8-carbonitrile] |
| 3 nM | Cc1cc(N2CCN(C[C@H]3CN(c4ccc(C#N)c5ncccc45)C[C@@H](C)O3)CC2)nc(N2C[C@@H](N)[C@@H](F)C2)n1 [Example 55, 5-[(2S,6R)-2-[[4-[2-[(3R,4S)-3-amino-4-fluoro-pyrrolidin-1-yl]-6-methyl-pyrimidin-4-yl]piperazin-1-yl]methyl]-6-methyl-morpholin-4-yl]quinoline-8-carbonitrile] |
| 6 nM | Cc1cc(N2CCN(C[C@H]3CN(c4ccc(C#N)c5ncccc45)C[C@@H](C)O3)CC2)nc(N2CCOCC(N)C2)n1 (stereo partly drawn) [Example 56, 5-[(2S,6R)-2-[[4-[2-(6-amino-1,4-oxazepan-4-yl)-6-methyl-pyrimidin-4-yl]piperazin-1-yl]methyl]-6-methyl-morpholin-4-yl]quinoline-8-carbonitrile] |
| 4 nM | Cc1cc(N2CCN(C[C@H]3CN(c4ccc(C#N)c5ncccc45)C[C@@H](C)O3)CC2)nc(NC2CNCC2C#N)n1 (stereo partly drawn) [Example 57, 5-[(2S,6R)-2-[[4-[2-[(4-cyanopyrrolidin-3-yl)amino]-6-methyl-pyrimidin-4-yl]piperazin-1-yl]methyl]-6-methyl-morpholin-4-yl]quinoline-8-carbonitrile] |
| 4 nM | Cc1cc(N2CCN(C[C@H]3CN(c4ccc(C#N)c5ncccc45)C[C@@H](C)O3)CC2)nc(N2C[C@@H]3COC[C@@H](C2)N3)n1 [Example 58, 5-[(2R,6S)-2-methyl-6-[[4-[6-methyl-2-[(1R,5R)-3-oxa-7,9-diazabicyclo[3.3.1]nonan-7-yl]pyrimidin-4-yl]piperazin-1-yl]methyl]morpholin-4-yl]quinoline-8-carbonitrile] |
| 3 nM | CO[C@H]1CN(c2nc(C)cc(N3CCN(C[C@H]4CN(c5ccc(C#N)c6ncccc56)C[C@@H](C)O4)CC3)n2)C[C@H]1N [Example 60, 5-[(2R,6S)-2-methyl-6-[[4-[6-methyl-2-[cis-3-amino-4-methoxy-pyrrolidin-1-yl]pyrimidin-4-yl]piperazin-1-yl]methyl]morpholin-4-yl]quinoline-8-carbonitrile] |
| 3 nM | Cc1cc(N2CCN(C[C@H]3CN(c4ccc(C#N)c5ncccc45)C[C@@H](C)O3)CC2)nc(N2CC3(CNCCO3)C2)n1 [Example 61, 5-[(2R,6S)-2-methyl-6-[[4-[6-methyl-2-(5-oxa-2,8-diazaspiro[3.5]nonan-2-yl)pyrimidin-4-yl]piperazin-1-yl]methyl]morpholin-4-yl]quinoline-8-carbonitrile] |
| 13 nM | Cc1cc(N2CCN(C[C@H]3CN(c4ccc(C#N)c5ncccc45)C[C@@H](C)O3)CC2)nc(N2CC(N)C(F)(F)C2)n1 (stereo partly drawn) [Example 63, 5-[(2S,6R)-2-[[4-[2-(4-amino-3,3-difluoro-pyrrolidin-1-yl)-6-methyl-pyrimidin-4-yl]piperazin-1-yl]methyl]-6-methyl-morpholin-4-yl]quinoline-8-carbonitrile] |
| 8 nM | Cc1cc(N2CCN(C[C@H]3CN(c4ccc(C#N)c5ncccc45)C[C@@H](C)O3)CC2)nc(N2CCNCC(O)C2)n1 (stereo partly drawn) [Example 66, 5-[(2S,6R)-2-[[4-[2-(6-hydroxy-1,4-diazepan-1-yl)-6-methyl-pyrimidin-4-yl]piperazin-1-yl]methyl]-6-methyl-morpholin-4-yl]quinoline-8-carbonitrile] |
